The values below are quoted from earlier work in patent US20240398972A1, “METHODS FOR PRODUCING ANTIBODY-LINKER CONJUGATES” (ARARIS BIOTECH AG, priority 2021, published 2024).

Broadly, the Kd is the free concentration of one partner at which half of the binding sites on the other are occupied at equilibrium, for simple one-to-one binding.

In data set [1] the target is DNA-dependent RNA polymerase II (Homo sapiens, UniProt P24928). The following applies: complex amanitin / RNA-polymerase II, not covalently bound.
Another data set relates to various tumor cell lines. As to conditions: cytostatic effects.

As for amanitin, in data set [1], the Kd was 3 nM.

Regarding `CC[C@H](C)[C@H](NC(=O)[C@H]1CCCCN1C)C(=O)N(COC(=O)CC(C)C)[C@H](C[C@@H](OC(C)=O)c1nc(C(=O)N[C@@H](Cc2ccc(O)cc2)C[C@H](C)C(=O)O)cs1)C(C)C` [Tubulysin A], the IC50 result with various tumor cell lines is “picomolar range”.
